# Measurements published in patent publication US20070287719A1, “Salts, Prodrugs and Formulations of 1-[5-(4-Amino-7-Isopropyl-7H-Pyrrolo[2,3-D]Pyrimidine-5-Carbonyl)-2-Methoxy-Phenyl]-3-(2,4-Dichloro-Phenyl)-Urea” (Pfizer Inc, priority 2005, published 2007).
# Legend:
# [1] = Hygroscopicity of salt forms; type: physicochemical; details: at 90 percent relative humidity at ambient temperature
# [2] = In vitro dissolution test in Model Fasted Duodenal (MFD) solution; type: physicochemical; details: 1.8 mL MFD; 0.36 mg free base active agent or 1.44 mg active agent in spray dry dispersion
# Description: The compositions comprising the active agent and concentration-enhancing polymer provide enhanced concentration of the dissolved inhibitor in in vitro dissolution tests. It has been determined that enhanced drug concentration in in vitro dissolution tests in Model Fasted Duodenal (MFD) solution or Phosphate Buffered Saline (PBS) is a good indicator of in vivo performance and bioavailability. An appropriate PBS solution is an aqueous solution comprising 20 mM sodium phosphate (Na2HPO4), 47 mM potassium phosphate (KH2PO4), 87 mM sodium chloride (NaCl), and 0.2 mM potassium chloride (KCl), adjusted to pH 6.5 with sodium hydroxide (NaOH). An appropriate MFD solution is the same PBS solution wherein additionally is present 7.3 mM sodium taurocholic acid and 1.4 mM of 1-palmitoyl-2-oleyl-sn-glycero-3-phosphocholine. In particular, a composition of the present invention can be dissolution-tested by adding it to MFD or PBS solution and agitating to promote dissolution. […]
# The concentration of dissolved inhibitor is typically measured as a function of time by sampling the test medium and plotting inhibitor concentration in the test medium vs. time so that the MDC can be ascertained. The MDC is taken to be the maximum value of dissolved inhibitor measured over the duration of the test. […]
# [3] = Plasma pharmacokinetics after oral dosing, rat; type: in vivo; details: Rat (n = 4), 100 mg Active Agent/kg
# Description: (§1) Alternatively, the compositions of the present invention, when dosed orally to a human or other mammal, provide an AUC inhibitor concentration in the blood (herein referred to as a plasma AUC) that is at least about 4 fold that observed when a control composition comprising all equivalent quantity of undispersed drug is dosed. It is noted that such compositions can also be said to have a relative bioavailability of about 4. Preferably, the compositions of the present invention, when dosed orally to a human or other mammal, provide an AUC inhibitor concentration in the blood that is at least about 6 fold, more preferably at least about 10 fold, and even more preferably at least about 20 fold that observed when a control composition comprising an equivalent quantity of undispersed drug is dosed. […] An exemplary dosing vehicle would be a suspension solution of water containing 0.5 wt percent […] (such as METHOCEL) and 0.16 wt percent of the surfactant polyoxyethylene 20 sorbitan monooleate (such as TWEEN 80). Thus, the compositions of the present invention can be evaluated in either in vitro or in vivo tests, or both. […]
# (§2) Relative bioavailability of inhibitor in the dispersions of the present invention can be tested in vivo in animals or humans using conventional methods for making such a determination. […] In an in vivo crossover study a “test composition” of inhibitor and polymer is dosed to half a group of test subjects and, after an appropriate washout period (e.g., one week) the same subjects are dosed with a “control composition” that comprises an equivalent quantity of inhibitor as the “test composition” (but with no polymer present). […] The relative bioavailability is measured as the concentration in the blood (serum or plasma) versus time area under the curve (AUC) determined for the test group divided by the AUC in the blood provided by the control composition. Preferably, this test/control ratio is determined for each subject, and then the ratios are averaged over all subjects in the study. […]
# [4] = Plasma pharmacokinetics after oral dosing, dog; type: in vivo; details: Dog (n = 3), 30 mg Active Agent/kg
# Description: as §1, §2
# [5] = molecular target: T1, fully activated recombinant GST-TIE2 construct (Homo sapiens, UniProt Q02763); experiment: Tie-2 tyrosine kinase inhibition, GST-Tie-2 fusion protein, PGT plate ELISA; type: biochemical
# T1 construct: made in house; host or cells: insect cells (baculovirus)
# Description: (§3) The crystalline and non-crystalline forms and formulations of 1-[5-(4-Amino-7-isopropyl-7H-pyrrolo[2,3-d[pyrimidine-5-carbonyl)-2-methoxy-phenyl]-3-(2 4-dichloro-phenyl)-urea are selective inhibitors of the tyrosine kinases, Tie-2, TrkA and related family member TrkB. The potentcy of these forms and formulations of the present invention at the tyrosine kinases may be determined using the following assays.
# Inhibition of Tie-2 tyrosine kinase activity is measured in 96-well Maxisorp plates (Nunc) coated with poly-Glu-Tyr (PGT 4:1 Sigma) by the addition of 100 μL/well of a 25 μg/mL solution of PGT in PBS. Plates are incubated at 37° C. overnight, and transferred to 4° C. until use. Prior to compound testing, appropriate dilutions of compounds are made in 96-well polypropylene plates. […] GST-Tie-2 would be previously isolated from insect cells infected with GST-Tie-2 baculoviruses, and used at concentrations determined to provide OD450 signals of approximately 1.0 in the presence of ATP and the absence of chemical inhibitors. […] The bound HRP-PY20 antibody can be detected by the addition of 70 μL/well TMB microwell substrate (KPL), and color development terminated by the addition of an equal volume of 0.9 M H2SO4. The background signal from wells lacking ATP can be subtracted from all ATP-stimulated wells, and IC50 values calculated.
# [6] = molecular target: inactive (unphosphorylated) TIE2 kinase (Homo sapiens, UniProt Q02763); experiment: Inhibition of inactive TIE2 kinase; type: biochemical
# Text: as §3
# [7] = molecular target: T2, recombinant human erbB-TIE2 chimeric receptor overexpressed in C6 rat glioma cells (Homo sapiens, UniProt Q02763); experiment: Cell-based TIE-2 kinase activity of chimeric receptor
# T2 construct: erbB extracellular domain with TIE2 intracellular domain; extracellular domain of human EGFR (erbB); expressed in transfected cells; host or cells: C6 rat glioma cells
# T2 sequence (Q02763 770-1124 limits assumed, change not shown): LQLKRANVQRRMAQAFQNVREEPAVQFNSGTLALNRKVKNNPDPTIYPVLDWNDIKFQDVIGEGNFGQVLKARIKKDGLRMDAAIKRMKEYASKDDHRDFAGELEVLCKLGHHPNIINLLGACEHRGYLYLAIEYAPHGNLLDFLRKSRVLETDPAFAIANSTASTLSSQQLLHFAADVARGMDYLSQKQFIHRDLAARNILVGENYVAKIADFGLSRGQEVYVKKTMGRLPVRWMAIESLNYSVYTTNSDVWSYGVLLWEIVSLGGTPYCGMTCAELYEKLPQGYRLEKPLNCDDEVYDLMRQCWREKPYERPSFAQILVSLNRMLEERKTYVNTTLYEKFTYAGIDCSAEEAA
# Sequence of inactive (unphosphorylated) TIE2 kinase (Q02763 23-1124): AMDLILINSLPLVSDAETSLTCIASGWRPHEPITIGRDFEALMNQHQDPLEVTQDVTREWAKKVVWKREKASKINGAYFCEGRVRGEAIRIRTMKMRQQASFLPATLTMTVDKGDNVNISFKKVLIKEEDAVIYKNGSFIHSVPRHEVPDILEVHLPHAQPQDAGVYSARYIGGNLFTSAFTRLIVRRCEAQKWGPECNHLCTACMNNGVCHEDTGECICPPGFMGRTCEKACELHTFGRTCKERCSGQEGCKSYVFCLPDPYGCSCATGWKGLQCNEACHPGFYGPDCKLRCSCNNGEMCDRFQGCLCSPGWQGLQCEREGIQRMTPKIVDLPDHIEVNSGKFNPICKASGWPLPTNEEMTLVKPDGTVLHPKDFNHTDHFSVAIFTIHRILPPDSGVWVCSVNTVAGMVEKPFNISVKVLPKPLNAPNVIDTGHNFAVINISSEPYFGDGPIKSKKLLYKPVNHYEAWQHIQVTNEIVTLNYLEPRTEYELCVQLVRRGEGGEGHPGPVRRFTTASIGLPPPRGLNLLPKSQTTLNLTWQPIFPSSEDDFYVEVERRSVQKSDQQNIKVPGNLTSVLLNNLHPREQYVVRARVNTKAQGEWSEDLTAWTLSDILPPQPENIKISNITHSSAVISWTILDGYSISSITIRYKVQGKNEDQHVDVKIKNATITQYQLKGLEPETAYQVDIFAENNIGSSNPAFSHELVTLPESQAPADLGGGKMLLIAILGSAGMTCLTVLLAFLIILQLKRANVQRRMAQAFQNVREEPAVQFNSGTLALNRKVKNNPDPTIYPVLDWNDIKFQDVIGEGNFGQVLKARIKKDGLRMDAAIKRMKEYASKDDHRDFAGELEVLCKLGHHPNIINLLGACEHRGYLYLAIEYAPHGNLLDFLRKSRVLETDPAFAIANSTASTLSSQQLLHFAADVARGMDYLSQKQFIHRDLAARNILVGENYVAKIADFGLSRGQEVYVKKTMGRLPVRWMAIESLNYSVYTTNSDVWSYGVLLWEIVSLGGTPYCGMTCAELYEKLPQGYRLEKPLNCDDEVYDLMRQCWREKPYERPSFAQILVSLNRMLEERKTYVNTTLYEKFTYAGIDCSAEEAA
# T1 sequence (Q02763 23-1124): as above
structure (smiles),measurement,setting,value
"COc1ccc(C(=O)c2cn(C(C)C)c3ncnc(N)c23)cc1NC(=O)Nc1ccc(Cl)cc1Cl.CS(=O)(=O)O [Example 2, 1-[5-(4-Amino-7-isopropyl-7H-pyrrolo[2,3-d]pyrimidine-5-carbonyl)-2-methoxy-phenyl]-3-(2,4-dichloro-phenyl)-urea•Mesylate (Form B)]",Hygroscopicity,[1],7.9 percent (by weight)
"COc1ccc(C(=O)c2cn(C(C)C)c3ncnc(N)c23)cc1NC(=O)Nc1ccc(Cl)cc1Cl.O=P(O)(O)O [Example 1, 1-[5-(4-Amino-7-isopropyl-7H-pyrrolo[2,3-d]pyrimidine-5-carbonyl)-2-methoxy-phenyl]-3-(2,4-dichloro-phenyl)-urea•Phosphate]",Hygroscopicity,[1],0.8 percent (by weight)
"COc1ccc(C(=O)c2cn(C(C)C)c3ncnc(N)c23)cc1NC(=O)Nc1ccc(Cl)cc1Cl.O=S(=O)(O)c1ccccc1 [Example 8, 1-[5-(4-Amino-7-isopropyl-7H-pyrrolo[2,3-d]pyrimidine-5-carbonyl)-2-methoxy-phenyl]-3-(2,4-dichloro-phenyl)-urea•Besylate]",Hygroscopicity,[1],2.0 percent (by weight)
"COc1ccc(C(=O)c2cn(C(C)C)c3ncnc(N)c23)cc1NC(=O)Nc1ccc(Cl)cc1Cl [1-[5-(4-amino-7-isopropyl-7H-pyrrolo[2,3-d]pyrimidine-5-carbonyl)-2-methoxy-phenyl]-3-(2,4-dichloro-phenyl)-urea]",AUC (aqueous concentration versus time),[2],100 µg·min/mL
same,MDC (Maximum Drug Concentration),[2],3 µg/mL
same,Cmax,[3],191 ± 153 ng/mL
same,Tmax,[3],4.5 ± 1 h
same,AUC(0-t),[3]; read-out: AUC0-24,1300 ± 940 ng·h/mL
same,Cmax,[4],347 ± 556 ng/mL
same,Tmax,[4],4 ± 2 h
same,AUC(0-t),[4]; read-out: AUC0-24,2810 ± 4550 ng·h/mL
same,IC50,[5],280 nM
same,Ki,[6],23 nM
same,IC50,[7],4.67 nM
"COc1ccc(C(=O)c2cn(C(C)C)c3ncnc(N)c23)cc1NC(=O)Nc1ccc(Cl)cc1Cl.CS(=O)(=O)O [Example 3, 1-[5-(4-Amino-7-isopropyl-7H-pyrrolo[2,3-d]pyrimidine-5-carbonyl)-2-methoxy-phenyl]-3-(2,4-dichloro-phenyl)-urea•Mesylate (Polymorph A)]",Hygroscopicity,[1],1.6 percent (by weight)
"COc1ccc(C(=O)c2cn(C(C)C)c3ncnc(N)c23)cc1NC(=O)Nc1ccc(Cl)cc1Cl.Cc1ccc(S(=O)(=O)O)cc1 [Example 9, 1-[5-(4-Amino-7-isopropyl-7H-pyrrolo[2,3-d]pyrimidine-5-carbonyl)-2-methoxy-phenyl]-3-(2,4-dichloro-phenyl)-urea•Tosylate]",Hygroscopicity,[1],1.1 percent (by weight)
